# Tests used:
# [1] = Expert panel tasting, application on soy sauce; assay type: in vivo, people; conditions: for taste description of mixture B compared to mixture A, effect assigned to the compound: 150-300 ppm N-acetyl-DL-glutamic acid plus 50-200 ppm N-formyl-glycine together in 5% soy sauce, panel of 5
# Source text: Mixture A: 5% of a standard soy sauce in water, Mixture B: Same as mixture A plus 150-300 ppm N-acetyl-DL-glutamic acid plus 50-200 ppm N-formyl-glycine. […] This effect could be assigned to N-acetyl glutamic acid.
# [2] = Expert panel tasting in chicken broth; assay type: in vivo, people; conditions: 100 ppm in chicken broth; panel of 5
# Source text: Mixture A: A chicken broth Mixture B: The same as A plus 100 ppm of N-acetyl-L-tyrosine
# [3] = Expert panel tasting in aqueous solution of 0.5% NaCl, 0.03% MSG and 0.002% ribonucleotides; assay type: in vivo; conditions: 50 ppm in 0.5% NaCl, panel of 5
# Source text: Mixture A: An aqueous solution of 0.5% NaCl, 0.03% MSG and 0.002%
# Ribonucleotides GMP:IMP, ratio 1:1)
# Mixture B: The same as A plus50 ppm of N-hexanoyl-L-leucine
# Mixture A: An aqueous solution of 0.5% NACl, 0.03% MSG and 0.002%
# Ribonucleotides (1:1 GMP, IMP)
# Mixture B: The same as A plus 50 ppm of N-pentanoyl-L-phenylalanine
# [4] = Expert panel tasting in aqueous solution of 0.5% NaCl; assay type: in vivo, people; conditions: panel of 5
# Source text: Mixture A: An aqueous solution of 0.5% NaCl Mixture B: The same as A plus 10 ppm N-formyl-DL-phenylalanine Mixture A: An aqueous solution of 0.5% NaCl Mixture B: The same as A plus 50 ppm of N-acetyl-L-isoleucine Mixture A: An aqueous solution of 0.5% NaCl Mixture B: The same as A plus 10 ppm N-acetyl-DL-valine
# [5] = Expert panel tasting in aqueous solution of 0.5% NaCl and 0.03% MSG; assay type: in vivo, people; conditions: panel of 5
# Source text: Mixture C: An aqueous solution of 0.5% NaCl and 0.03% MSG.
# Mixture D: The same as C plus 10 ppm N-formyl-DL-phenylalanine.
# Mixture C: An aquesous solution of 0.5% NaCL and 0.03% MSG
# Mixture D: The same as C plus 50 ppm of N-acetyl-L-isoleucine
# Mixture A: An aqueous solution of 0.5% NaCl and 0.03% of MSG.
# Mixture B: The same as A plus 25 ppm N-formyl-L-lysine
# Mixture C: An aqueous solution of 0.5% NaCl and 0.03% MSG (Mono sodium glutamate)
# Mixture D: The same as C plus 75 ppm of N-acetlyl DL-valine
# [6] = Expert panel tasting, application on Bechamel sauce with cheese; assay type: in vivo, people; conditions: for taste description of mixture B compared to mixture A, effect assigned to the compound: 150-300 ppm N-acetyl-DL-glutamic acid plus 50-200 ppm N-formyl-glycine together in Bechamel sauce with cheese, panel of 5
# Method: Mixture A: A Bechamel sauce with cheese was prepared by heating up 25 g of wheat flour in 35 g of butter in a saucepan. Let the flour cook shortly. Add 500 g milk, 2.5 g table salt, 0.15 g MSG, 0.075 g nutmeg powder, 0.125 g black pepper and 40 g of cheese powder. Boil the mixture for one minute. Mixture B: The same as mixture A plus 150-300 ppm N-acetyl-DL-glutamic acid plus 50-200 ppm N-formyl-glycine.
# [7] = Panel of experienced tasters, cream cheese; assay type: in vivo, people; conditions: 150 ppm in cream cheese; panel of 8
# Source text: 150 ppm of N-acetyl glutamic acid was thoroughly mixed into Philadelphia brand cream cheese. This product was tasted and compared with the original cream cheese by a panel of experienced tasters consisting of 8 people (5 men, 3 women aged 35-54).
# [8] = Panel of experienced tasters, salad dressing; assay type: in vivo, people; conditions: 100 ppm in salad dressing; panel of 8
# Method: 100 ppm of N-acetyl glutamic acid was dissolved in a common salad dressing (Remia met magere yoghurt). This product was tasted and compared with the original salad dressing by a panel of experienced tasters consisting of 8 people (5 men, 3 women aged 35-54).
# [9] = Panel of experienced tasters, cooking oil; assay type: in vivo, people; conditions: 200 ppm in cooking oil; panel of 8
# Method: 200 ppm of N-acetyl glutamic acid was dissolved in a common cooking oil (Becel kitchen). This product was tasted and compared with the original cooking oil by a panel of experienced tasters consisting of 8 people (5 men, 3 women aged 35-54).
# [10] = Panel of experienced tasters, hamburgers; assay type: in vivo, people; conditions: 150 ppm in hamburgers, baked; panel of 8
# Method: Hamburgers were prepared from 80% lean beef and 20% fat beef meat containing 0.5% salt, 0.15% black pepper and 0.15% onion powder and 150 ppm of N-acetyl glutamic acid. The hamburgers were baked without additional fat and compared with the same batch of meat to which no N-acetyl glutamic acid was added. This product was tasted and compared with the original hamburgers by a panel of experienced tasters consisting of 8 people (5 men, 3 women aged 35-54).
# [11] = Panel of experienced tasters, instant mashed potato; assay type: in vivo, people; conditions: 150 ppm in mashed potato; panel of 8
# Method: A standard instant mashed potato powder (Albert Heijn huismerk) was prepared and mixed with 150 ppm of N-acetyl glutamic acid. This product was tasted and compared with the original mashed potatoes by a panel of experienced tasters consisting of 8 people (5 men, 3 women aged 35-54).
# [12] = Panel of experienced tasters, potato chips with cheese sour cream flavour; assay type: in vivo, people; conditions: amount not given, panel of 8
# Method: Potato chips were prepared in house. A cheese sour cream flavour was prepared by mixing salt (1.5 weight % on the chips), MSG (0.05), whey powder (2.5), cheese powder (1.5), cream powder (0.2), buttermilk powder (0.4) and onion powder (0.2) The powder was applied on plain potato chips. This product was tasted and compared with the chips without N—Ac—Glu by a panel of experienced tasters consisting of 8 people (5 men, 3 women aged 35-54).
# [13] = Panel of experienced tasters, tomato soup; assay type: in vivo, people; conditions: 100 ppm in tomato soup; panel of 8
# Method: To a standard tomato soup (Albert Heijn huismerk) was added 100 ppm of N-acetyl glutamic acid. This product was tasted and compared with the original tomato soup by a panel of experienced tasters consisting of 8 people (5 men, 3 women aged 35-54).
# [14] = Panel of experienced tasters, cola; assay type: in vivo, people; conditions: 100 ppm in cola; panel of 8
# Method: To a standard cola (Pepsi or Coke cola) was added 100 ppm of N-acetyl glutamic acid. This product was tasted and compared with the original colas by a panel of experienced tasters consisting of 8 people (5 men, 3 women aged 35-54).
# [15] = Panel of experienced tasters, soy milk; assay type: in vivo, people; conditions: 100 ppm in soy milk; panel of 8
# Method: To a standard soy milk (Alpro) was added 100 ppm of N-acetyl glutamic acid. This product was tasted and compared with the original soy milk by a panel of experienced tasters consisting of 8 people (5 men, 3 women aged 35-54).
# [16] = Panel of experienced tasters, coffee beverage; assay type: in vivo, people; conditions: 150 ppm in coffee beverage; panel of 8
# Method: To a coffee beverage (Starbuck's frappucino) was added 150 ppm of N-acetyl glutamic acid. This product was tasted and compared with the original coffee beverage by a panel of experienced tasters consisting of 8 people (5 men, 3 women aged 35-54).
# [17] = Panel of experienced tasters, vanilla yoghurt; assay type: in vivo, people; conditions: 100 ppm in vanilla yoghurt; panel of 8
# Method: To a standard vanilla yoghurt (Campina) was added 100 ppm of N-acetyl glutamic acid. This product was tasted and compared with the original vanilla yoghurt by a panel of experienced tasters consisting of 8 people (5 men, 3 women aged 35-54).
# [18] = Expert panel tasting in salt reduced soy sauce; assay type: in vivo; conditions: 0.04 ppm in salt reduced soy sauce
# Source text: Mixture A: salt reduced Kikkoman soy sauce containing 9% salt Mixture B: same as Mixture A plus 0.04 ppm N-acetyl-methionine
# [19] = Expert tasters, beef bouillon tasted warm; assay type: in vivo; conditions: 40 ppb in beef bouillon
# Source text: Mixture C: commercially available beef bouillon Mixture D: same as Mixture C plus 40 ppb N-acetyl-methionine The soups were tasted warm by a group of expert tasters.
smiles,measurement,setting,value
CC(=O)N[C@@H](CCC(=O)O)C(=O)O [N-acetyl-L-glutamic acid],taste description compared to mixture A,[1]; only 50 -300 ppm N-acetyl-L-glutamic acid on top of mixture A,more umami and more lingering savoury
CC(=O)N[C@@H](Cc1ccc(O)cc1)C(=O)O [N-acetyl-L-tyrosine],taste description of mixture B compared to mixture A,[2],"more salty, lingering umami and shows delayed numbing"
CCCCCC(=O)N[C@@H](CC(C)C)C(=O)O [N-hexanoyl-L-leucine],taste description of mixture B compared to mixture A,[3],more salty and umami
CC[C@H](C)[C@H](NC(C)=O)C(=O)O [N-acetyl-L-isoleucine],taste description of mixture B compared to mixture A,[4]; 50 ppm in 0.5% NaCl,more salty
same,taste description of mixture D compared to mixture C,[5]; 50 ppm in 0.5% NaCl and 0.03% MSG,more umami
CC(=O)N[C@@H](CCC(=O)O)C(=O)O [N-acetyl glutamic acid],"taste description of mixture B compared to mixture A, effect assigned to the compound",[1],more umami and more lingering savoury
same,"taste description of mixture B compared to mixture A, effect assigned to the compound",[6],"more lingering, and giving fullness, depth and aftertaste of dairy cheese products"
same,taste description compared with the original product,[7],"saltier, creamier, more umami, more body, lingering and mouth-coating"
same,taste description compared with the original product,[8],"more balanced, less sour, fuller, salivating and more lingering"
same,taste description compared with the original product,[9],"more fatty, more creamy, more mouthcoating and gave a better buttery aftertaste"
same,taste description compared with the original product,[10],"more meaty, more succulent, more juicy, more fatty and more expanding in the mouth"
same,taste description compared with the original product,[11],"more salty, more creamy and more full"
same,taste description compared with the chips without N-Ac-Glu,[12],"more salty, more creamy, gave more mouthwatering and had increased cheese intensity"
same,taste description compared with the original product,[13],"less sour, had more body, was more salivating and had a stronger cooked taste"
same,taste description compared with the original product,[14],"slightly less acidic, more syrupy and more smooth"
same,taste description compared with the original product,[15],slightly more sweet and masked some of the soy off-notes
same,taste description compared with the original product,[16],"slightly more bitter, had reduced metallic retort notes and had increased carmellic notes"
same,taste description compared with the original product,[17],"less sour, more intense vanilla, more creamy, lingering and had more body"
CCCCC(=O)N[C@@H](Cc1ccccc1)C(=O)O [N-pentanoyl-L-phenylalanine],taste description of mixture B compared to mixture A,[3],more salty and umami
"NCCCCC(NC=O)C(=O)O [N-formyl-L-lysine, alpha-N-formyl-L-lysine]",taste description of mixture B compared to mixture A,[5]; 25 ppm in 0.5% NaCl and 0.03% MSG,more umami
"CSCCC(NC(C)=O)C(=O)O (stereo not shown) [N-acetyl-methionine, N-acetyl-methionine (2-acetamido-4-(methylthio)butanoic acid)]",taste description of mixture B compared to mixture A,[18],more salty and has more upfront salty taste
same,taste description of mixture D compared to mixture C,[19],"more salty, longer lasting and lifts the garlic component"
O=CNCC(=O)O [N-formyl glycine],"taste description of mixture B compared to mixture A, effect assigned to the compound",[1],"stronger initial salt spike, was more long-lasting, complex and more succulent"
same,taste description compared to pure mixture A,[1]; only 50-200 ppm N-formyl-glycine on top of mixture A,"more salty, more complex, long lasting and succulent"
same,"taste description of mixture B compared to mixture A, effect assigned to the compound",[6],"stronger initial bite, is more salty and more complex"
same,taste description compared to pure mixture A,[6]; only 50-200 ppm N-formyl glycine on top of mixture A,"more bite, more complex note and saltiness"
CC(=O)NC(C(=O)O)C(C)C (racemic) [N-acetyl-DL-valine],taste description of mixture B compared to mixture A,[4]; 10 ppm in 0.5% NaCl,more initially salty
same,taste description of mixture D compared to mixture C,[5]; 75 ppm in 0.5% NaCl and 0.03% MSG,more lingering umami and salivating
O=CNC(Cc1ccccc1)C(=O)O (racemic) [N-formyl-DL-phenylalanine],taste description of mixture B compared to mixture A,[4]; 10 ppm in 0.5% NaCl,more salty
same,taste description of mixture D compared to mixture C,[5]; 10 ppm in 0.5% NaCl and 0.03% MSG,more umami
CC(=O)NC(CCC(=O)O)C(=O)O (racemic) [N-acetyl-DL-glutamic acid],taste description compared to mixture A,[6]; only 150-300 ppm N-acetyl-DL-glutamic acid on top of mixture A,"more fullness, depth and aftertaste of cheese"
